In paper PMC5665533, “Generation of G protein-coupled receptor antibodies differentially sensitive to conformational states” (PLoS ONE, 2017):

Molecular target: T1, dopamine D1 receptor (D1R) (Homo sapiens, UniProt P21728)
T1 construct: gene DRD1; endogenous full-length receptor in SK-N-SH neuroblastoma cells
Test: ELISA, agonist-induced receptor recognition by anti-D1R antibody, SK-N-SH cells
Assay type: cell-based
Settings: 1 μM agonist; endogenous receptor

T1 sequence (P21728 whole entry): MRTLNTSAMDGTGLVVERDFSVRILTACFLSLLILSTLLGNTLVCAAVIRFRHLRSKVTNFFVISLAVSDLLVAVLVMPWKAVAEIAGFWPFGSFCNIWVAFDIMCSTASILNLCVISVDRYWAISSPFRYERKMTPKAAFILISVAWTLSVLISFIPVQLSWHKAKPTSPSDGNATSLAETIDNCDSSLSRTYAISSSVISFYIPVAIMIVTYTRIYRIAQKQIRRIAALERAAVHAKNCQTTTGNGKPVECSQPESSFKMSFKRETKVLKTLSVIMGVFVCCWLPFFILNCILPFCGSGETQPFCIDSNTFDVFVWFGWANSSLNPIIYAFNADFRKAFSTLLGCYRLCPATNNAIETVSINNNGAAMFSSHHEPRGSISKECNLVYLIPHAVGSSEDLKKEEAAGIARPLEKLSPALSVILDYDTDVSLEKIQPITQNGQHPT

In the case of `C=CCN1CCc2c(cc(O)c(O)c2Cl)C(c2cccc(C)c2)C1` (stereo not shown) [SKF83822], the “ELISA, agonist-induced receptor recognition by anti-D1R antibody, SK-N-SH cells” value is reported as “treatment with the dopamine D1 receptor (D1R) agonist, SKF83822”.
